Test results as given in the supplement of paper PMC10307832.

Key:
Assay in all cases: relative viability (nuclei count vs DMSO), 5 days (fraction); higher = more cells survive
[1] = compound: C1CC2=C(C1)C=C(C=C2)OC3=NC(=C4C(=N3)N(C=N4)CC5=CC=C(C=C5)C6=CC=CC=C6)N[C@@H](CC7=CC=CC=C7)CO [QS11] + C[C@@H](Oc1cc(-c2cnn(C3CCNCC3)c2)cnc1N)c1c(Cl)ccc(F)c1Cl [Crizotinib] (partner 1 µM)
How it was run: (§1)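 Relative viability is defined as nuclei in treated wells over nuclei in vehicle wells. Duplicate plates were run and medians reported. Lung cancer cell lines in 1536-well plates were dosed by pin tool one day after seeding, with one drug or with a fixed anchor-drug dose plus five library-drug doses (not always all listed) in √10 steps, and nuclei were counted after 5 days.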

[2] = compound: C1CC2=C(C1)C=C(C=C2)OC3=NC(=C4C(=N3)N(C=N4)CC5=CC=C(C=C5)C6=CC=CC=C6)N[C@@H](CC7=CC=CC=C7)CO [QS11] + NC(=O)Nc1cc(-c2cccc(F)c2)sc1C(=O)N[C@H]1CCCNC1 [AZD7762] (partner 0.2 µM)
How it was run: as §1

[3] = compound: CC1=C(C=C(C=C1)NC(=O)C2=CC(=CC=C2)C(C)(C)C#N)NC3=CC4=C(C=C3)N=CN(C4=O)C [AZ628] + CS(=O)(=O)CCNCc1ccc(-c2ccc3ncnc(Nc4ccc(OCc5cccc(F)c5)c(Cl)c4)c3c2)o1 [Lapatinib] (partner 2 µM)
How it was run: as §1

[4] = compound: C1CC2=C(C1)C=C(C=C2)OC3=NC(=C4C(=N3)N(C=N4)CC5=CC=C(C=C5)C6=CC=CC=C6)N[C@@H](CC7=CC=CC=C7)CO [QS11] + CCNC(=O)c1noc(-c2cc(C(C)C)c(O)cc2O)c1-c1ccc(CN2CCOCC2)cc1 [Luminespib] (partner 0.01 µM)
How it was run: as §1

Cell Line | relative viability ([1]; first compound 0.08 µM) | relative viability ([1]; first compound 0.253 µM) | relative viability ([1]; first compound 0.8 µM) | relative viability ([1]; first compound 2.53 µM) | relative viability ([1]; first compound 8 µM) | relative viability ([2]; first compound 0.08 µM) | relative viability ([2]; first compound 0.253 µM) | relative viability ([2]; first compound 0.8 µM) | relative viability ([2]; first compound 2.53 µM) | relative viability ([2]; first compound 8 µM) | relative viability ([3]; first compound 0.08 µM) | relative viability ([3]; first compound 0.253 µM) | relative viability ([3]; first compound 0.8 µM) | relative viability ([3]; first compound 2.53 µM) | relative viability ([3]; first compound 8 µM) | relative viability ([4]; first compound 0.08 µM) | relative viability ([4]; first compound 0.253 µM) | relative viability ([4]; first compound 0.8 µM) | relative viability ([4]; first compound 2.53 µM) | relative viability ([4]; first compound 8 µM)
NCI-H727 | 0.813 | 0.958 | 0.857 | 0.729 | 0.631 | 0.694 | 0.581 | 0.584 | 0.727 | 0.612 | 0.484 | 0.472 | 0.415 | 0.326 | 0.296 | 0.876 | 0.391 | 0.341 | 0.321 | 0.341
NCI-H838 | 0.937 | 0.788 | 0.576 | 0.746 | 0.761 | 1 | 0.87 | 0.844 | 0.905 | 1.03 | 1.05 | 0.992 | 0.572 | 0.956 | 1.04 | 0.284 | 0.246 | 0.282 | 0.289 | 0.275
NCI-H1355 | 0.99 | 1.58 | 0.823 | 0.915 | 0.972 | 0.729 | 0.607 | 0.666 | 0.614 | 0.759 | 0.974 | 0.934 | 0.947 | 0.944 | 0.862 | 0.743 | 0.696 | 0.602 | 0.727 | 0.703
NCI-H1437 | 0.99 | 1.04 | 0.862 | 0.747 | 0.744 | 1.12 | 1.18 | 0.891 | 1.08 | 1.11 | 0.858 | 0.735 | 0.738 | 0.94 | 0.97 | 1.15 | 1.2 | 1.11 | 1.05 | 0.947
NCI-H1651 | 0.888 | 0.95 | 0.79 | 0.903 | 0.899 | 0.445 | 0.481 | 0.487 | 0.458 | 0.404 | 0.985 | 0.86 | 0.865 | 0.753 | 1.11 | 1.05 | 0.923 | 0.75 | 0.714 | 0.752
NCI-H1666 | 0.995 | 0.808 | 0.668 | 0.52 | 0.432 | 0.959 | 0.806 | 0.682 | 0.727 | 0.63 | 0.759 | 0.58 | 0.521 | 0.477 | 0.539 | 1.01 | 1.1 | 0.702 | 0.728 | 0.519
NCI-H1734 | 0.65 | 0.656 | 0.658 | 0.555 | 0.619 | 0.579 | 0.595 | 0.71 | 0.465 | 0.529 | 1.08 | 1.07 | 0.896 | 0.908 | 0.699 | 0.2 | 0.199 | 0.186 | 0.179 | 0.168
NCI-H1755 | 0.889 | 0.826 | 0.509 | 0.677 | 0.691 | 0.472 | 0.492 | 0.42 | 0.48 | 0.413 | 0.99 | 0.951 | 0.96 | 1.04 | 1.02 | 0.403 | 0.406 | 0.289 | 0.422 | 0.412
NCI-H1792 |  | 1.06 | 0.662 | 1.11 | 1.33 |  | 0.733 | 0.595 | 0.385 | 0.34 | 0.995 | 0.891 | 0.653 | 0.793 | 0.566 | 0.432 | 0.417 | 0.386 | 0.369 | 0.409
NCI-H1915 | 0.926 | 1.13 |  | 0.824 | 0.815 | 0.693 | 0.702 |  | 0.753 | 0.634 | 1.05 | 1 | 0.83 | 0.653 | 0.704 | 0.952 | 0.959 |  | 0.766 | 0.447
NCI-H1944 | 1.13 | 1.43 |  | 0.91 | 0.834 | 0.49 | 0.519 |  | 0.421 | 0.39 | 0.855 | 0.892 | 0.831 | 0.747 | 0.701 | 0.702 | 0.864 |  | 0.557 | 0.543
NCI-H1975 | 1.08 | 1.03 | 0.853 | 1.16 | 0.817 | 0.668 | 0.629 | 0.849 | 0.874 | 0.919 | 0.866 | 0.723 | 0.85 | 0.921 | 0.513 | 0.199 | 0.33 | 0.275 | 0.281 | 0.2
NCI-H1993 | 0.974 | 0.756 | 0.868 | 0.827 | 0.771 | 0.793 | 0.88 | 0.927 | 0.771 | 0.615 | 0.883 | 0.78 | 0.766 | 0.834 | 0.838 | 0.831 | 0.74 | 0.739 | 0.77 | 0.68
NCI-H2085 | 0.907 | 0.95 | 0.84 | 0.776 | 0.802 | 1.01 | 1.06 | 0.791 | 1 | 0.991 | 0.824 | 0.685 | 0.795 | 0.741 | 0.743 | 0.376 | 0.474 | 0.286 | 0.403 | 0.546
NCI-H2087 | 0.849 | 0.794 | 0.65 | 0.652 | 0.573 | 1.28 | 1.4 | 1.08 | 1.3 | 1.3 | 0.795 | 0.799 | 0.636 | 0.865 | 0.41 | 0.136 | 0.186 |  | 0.158 | 0.172
NCI-H2126 | 1.05 | 1 | 0.855 | 0.897 | 0.758 | 1.01 | 0.999 | 0.846 | 1.01 | 0.933 | 0.758 | 0.857 | 0.834 | 0.752 | 0.89 | 0.923 | 0.976 | 0.695 | 0.766 | 0.726
NCI-H2170 | 1.32 | 1.1 | 1.02 | 1.12 | 1.51 | 0.87 | 0.942 | 0.722 | 0.871 | 1.02 | 0.3 | 0.279 | 0.248 | 0.268 | 0.278 | 0.603 | 0.646 | 0.766 | 0.806 | 0.665
NCI-H2347 | 0.683 | 0.645 | 0.671 | 0.501 | 0.76 | 0.698 | 0.694 | 0.692 | 0.834 | 0.807 | 0.8 | 0.89 | 0.902 | 0.836 | 0.457 | 0.367 | 0.571 | 0.505 | 0.352 | 0.886
NCI-H2405 | 0.822 | 0.883 | 0.808 | 0.88 | 0.95 | 0.731 | 0.747 | 0.789 | 1.13 | 1.22 | 0.733 | 0.59 | 0.487 | 0.487 | 0.515 | 0.516 | 0.756 | 0.646 | 0.835 | 0.89
NCI-H3122 | 0.25 | 0.3 | 0.313 | 0.436 | 0.616 | 0.998 | 1.05 |  | 1.15 | 0.961 | 0.975 | 0.733 | 0.733 | 0.684 | 0.435 | 0.114 | 0.148 |  | 0.114 | 0.109
PC-3 [JPC-3] | 0.957 | 0.97 | 0.949 | 1.03 | 1.01 |  | 0.767 | 0.736 | 0.792 | 0.832 | 0.488 | 0.5 | 0.52 | 0.47 | 0.471 | 0.708 | 0.729 | 0.663 | 0.718 | 0.703
PC-14 | 0.851 | 0.896 | 0.871 | 0.848 | 0.911 | 0.276 | 0.278 | 0.369 | 0.318 | 0.443 | 0.347 | 0.365 | 0.351 | 0.313 | 0.343 |  | 0.14 | 0.183 | 0.135 | 0.148
RERF-LC-KJ | 0.467 | 0.906 | 0.847 | 0.769 | 0.759 | 1.06 | 0.836 | 0.728 | 0.879 | 0.945 | 0.825 | 0.837 | 0.846 | 0.839 | 0.888 | 1.5 | 1.35 | 1.04 | 1.22 | 1.11
